The compounds below were run against T1, WT BTK protein (Homo sapiens, UniProt Q06187) (assay: BTK protein degradation assay (Western blotting), WT BTK). Conditions: concentration range accounting for 50% degradation of WT BTK protein, TMD-8 or RAMOS cells, 24 hours.
T1 construct: measured for intracellular BTK protein levels by Western blotting; endogenous in cells; host or cells: TMD-8 or RAMOS cells
T1 sequence (Q06187 whole entry): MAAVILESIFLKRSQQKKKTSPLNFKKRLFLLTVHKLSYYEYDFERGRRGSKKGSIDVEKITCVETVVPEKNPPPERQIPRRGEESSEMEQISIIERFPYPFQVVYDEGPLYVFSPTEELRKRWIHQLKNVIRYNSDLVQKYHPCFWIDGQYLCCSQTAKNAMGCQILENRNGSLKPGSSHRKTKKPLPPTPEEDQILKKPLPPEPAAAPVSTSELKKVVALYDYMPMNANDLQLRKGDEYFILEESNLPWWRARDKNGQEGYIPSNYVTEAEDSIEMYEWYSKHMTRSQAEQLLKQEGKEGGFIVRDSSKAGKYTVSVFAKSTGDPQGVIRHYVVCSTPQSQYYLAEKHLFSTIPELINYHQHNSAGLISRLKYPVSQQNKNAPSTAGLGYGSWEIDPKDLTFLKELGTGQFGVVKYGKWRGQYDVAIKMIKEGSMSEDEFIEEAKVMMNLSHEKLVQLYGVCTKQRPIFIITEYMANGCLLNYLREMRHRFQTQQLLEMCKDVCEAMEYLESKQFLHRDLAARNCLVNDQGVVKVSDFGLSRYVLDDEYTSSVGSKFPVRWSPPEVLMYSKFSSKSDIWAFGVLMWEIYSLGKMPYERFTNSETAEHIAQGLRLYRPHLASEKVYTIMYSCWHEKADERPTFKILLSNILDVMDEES
Assay type: cell-based
Description: TMD-8, RAMOS, or 293T BTK MUT (C481S) cells were treated with the synthesized compounds and measured for intracellular BTK protein levels by Western blotting. The protocol of the experiment using TMD-8 cells is as follows.
TMD-8 cells were resuspended in an RPMI1640 medium (Hyclone, SH30027.01, 10% FBS (Hyclone, SV30207.02), 1% penicillin-streptomycin (Welgene, LS 202-02) and the cell suspension was seeded at a density of 1×10^6 cells/mL in an amount of 1 mL per well into 12-well plates.
The 12-well plates were treated as follows. A 10 mM stock was 1/10 diluted in series with DMSO ([…]) to form final concentrations of 10, 1, 0.1, 0.01, 0.001, and 0.0001 mM. The compounds with such concentrations were applied to cells, followed by harvesting the cells 24 hours later. For a negative control, a 1/10 dilution of DMSO in the medium (3 mL DMSO+27 mL medium) was used.
The 1-mL cell culture in each well was passed many times through a pipette and then transferred into a 1.5-mL microtube before centrifugation (500 g, 5 min, 4° C.). The supernatant was discarded and the cell pellet was washed with PBS. After centrifugation (500 g, 5 min, 4° C.) again, the supernatant was discarded and the cell pellet was taken.
A lysis buffer was prepared as follows. RIPA buffer (Biosesang, RC2038-050-00)+0.5 mM PMSF (SIGMA, P7626)+1×Protease/Phosphatase Inhibitor (Cell signaling, 5872S) was added in an amount […] per well and left for 30 minutes on ice (vortexing at 0 and 30 minutes) before sonication (5 cycles of pulse for 10 seconds and rest for 30 seconds, 70% amplification). The supernatant obtained by centrifugation (15000 g, 15 min, 4° C.) was transferred into a new microtube. Cells in each well of 96-well plates were 1/2 diluted with the RIPA buffer and incubated at 37° C. for 30 minutes with […] of a 50:1 mixture of BCA reagents A and B in BCA Protein Assay Kit (iNtRON, 21071). After being cooled for 10 minutes, the 96-well plates were measured for absorbance at 562 nm on the BioTek, SYNERGY H1 microplate reader. Samples were prepared by protein quantification based on the absorbance measurements and then boiled at 70° C. for 10 minutes. The sample buffer used in the case was prepared by mixing a NuPAGE or a Bolt 4× sample buffer (Invitrogen) and its 10× sample reducing agent depending on the gel to be used, and protein dilution was made in a RIPI buffer.
The samples were loaded in the same amount into a NuPAGE or Bolt Bis-tris 4-12% gradient gel and allowed to run therein (200 V, 35 minutes). The separated proteins were transferred onto a […] NC membrane, using Trans-blot Turbo (BIO-RAD) (1.3 A constant, 25V limit, 15 minutes). The membrane was blocked at room temperature for 1 hour with skim milk or Intercept Blocking Buffer (LI-COR, 927-60001):0.1% TBST=1:1. The membrane was incubated with Anti BTK Rabbit (1:1,000 in 5% skim milk/0.2% TBST, size: 77 kDa, Cell signaling Technology) at 4° C. overnight O/N or at room temperature for 2 hours and with Anti GAPDH Rabbit (1:10,000 in 5% BSA/0.2% TBST, size: 36 kDa, GENETEX) and Anti β-actin mouse (1:10,000 in 5% BSA/0.2% TBST, RT, size: 43 kDa, GENETEX) at room temperature for 1 or 3 hours. Then, the membrane was washed three times with 0.5% TBST for 5 minutes each time before incubation with the second antibody Anti-Rabbit IgG (1:5,000 in 5% Skim milk/TBST, CST), IRDye® 800CW Goat anti-Rabbit IgG Secondary Antibody (1:10,000 in 5% skim/TBST, RT 45 min), or IRDye® 680RD Goat anti-Mouse IgG Secondary Antibody (1:10,000 in 5% skim/TBST, RT 45 min) for 45 minutes at room temperature in a rocker. The membrane was washed five times with 0.5% TBST for 5 minutes in each time, followed by detection with LI-COR, Odyssey. In this regard, the detection proceeded, as it was, for house-keeping genes while using SuperSignal West Pico PLUS Chemiluminescent Substrate or SuperSignal West femto Maximum Sensitivity Substrate for BTK detection. […]
Compound `Cc1cccc(C)c1Nc1nn(C)c2nc(Nc3cccc(N4CCN(CC5CCN(c6ccc7c(c6)C(=O)N(C6CCC(=O)NC6=O)C7=O)CC5)CC4)c3)ncc12` (centres unmarked) [Compound 136, 5-(4-((4-(3-((3-((2,6-dimethylphenyl)amino)-1-methyl-1H-pyrazolo[3,4-d]pyrimidin-6-yl)amino)phenyl)piperazin-1-yl)methyl)piperidin-1-yl)-2-(2,6-dioxopiperidin-3-yl)isoindoline-1,3-dione] has a DC50 of 0.1 to 10 nM.
Work on `Cc1cccc(C)c1Nc1nn(C)c2nc(Nc3cccc(CNCC4CCN(c5ccc6c(c5)C(=O)N(C5CCC(=O)NC5=O)C6=O)CC4)c3)ncc12` (centres unmarked) [Compound 41, 5-(4-(((3-((3-((2,6-Dimethylphenyl)amino)-1-methyl-TH-pyrazolo[3,4-d]pyrimidin-6-yl)amino)benzyl)amino)methyl)piperidin-1-yl)-2-(2,6-dioxopiperidin-3-yl)isoindoline-1,3-dione] yielded a DC50 of 10 to 1000 nM.
`Cc1cccc(C)c1Nc1nn(C)c2nc(Nc3ccc4c(c3)CN(C(=O)[C@@H]3CCCN3C(=O)COc3ccc5c(c3)C(=O)N(C3CCC(=O)NC3=O)C5=O)CC4)ncc12` (stereo partly drawn) [Compound 34, 5-(2-((S)-2-(7-((3-((2,6-Dimethylphenyl)amino)-1-methyl-1H-pyrazolo[3,4-d]pyrimidin-6-yl)amino)-1,2,3,4-tetrahydroisoquinoline-2-carbonyl)pyrrolidin-1-yl)-2-oxoethoxy)-2-(2,6-dioxopiperidin-3-yl)isoindoline-1,3-dione] showed a DC50 of 10 to 1000 nM.
With `Cc1cccc(C)c1Nc1nn(C)c2nc(Nc3ccc4c(c3)CN(C(=O)/C(C#N)=C/C3CCN(C(=O)c5ccc6c(c5)CN(C5CCC(=O)NC5=O)C6=O)CC3)CC4)ncc12` (centres unmarked) [Compound 259, (E)-2-(7-((3-((2,6-Dimethylphenyl)amino)-1-methyl-1H-pyrazolo[3,4-d]pyrimidin-6-yl)amino)-1,2,3,4-tetrahydroisoquinoline-2-carbonyl)-3-(1-(2-(2,6-dioxopiperidin-3-yl)-1-oxoisoindoline-5-carbonyl)piperidin-4-yl)acrylonitrile] the DC50 was 10 to 1000 nM.
Work on `Cc1cccc(C)c1Nc1nn(C)c2nc(Nc3ccc4c(c3)CN(C3CCN(C[C@@H]5CCN(c6ccc7c(c6)C(=O)N(C6CCC(=O)NC6=O)C7=O)C5)CC3)CC4)ncc12` (stereo partly drawn) [Compound 143, 5-((S)-3-((4-(7-((3-((2,6-dimethylphenyl)amino)-1-methyl-1H-pyrazolo[3,4-d]pyrimidin-6-yl)amino)-3,4-dihydroisoquinolin-2 (1H)-yl)piperidin-1-yl)methyl)pyrrolidin-1-yl)-2-(2,6-dioxopiperidin-3-yl)isoindoline-1,3-dione] yielded a DC50 of 0.1 to 10 nM.
For `Cc1ccc(Nc2nn(C)c3nc(Nc4ccc5c(c4)CN(CC4CCN(c6ccc7c(c6)C(=O)N(C6CCC(=O)NC6=O)C7=O)CC4)CC5)ncc23)c(C)c1` (centres unmarked) [Compound 83, 5-(4-((7-((3-((2,4-Dimethylphenyl)amino)-1-methyl-1H-pyrazolo[3,4-d]pyrimidin-6-yl)amino)-3,4-dihydroisoquinolin-2 (1H)-yl)methyl)piperidin-1-yl)-2-(2,6-dioxopiperidin-3-yl)isoindoline-1,3-dione], the DC50 was 10 to 1000 nM.
With `Cc1cccc(C)c1Nc1nn(C)c2nc(Nc3ccc(CCNC(=O)C4CCN(C(=O)Nc5ccc6c(c5)CN(C5CCC(=O)NC5=O)C6=O)CC4)cc3)ncc12` (centres unmarked) [Compound 102, N4-(4-((3-((2,6-Dimethylphenyl)amino)-1-methyl-1H-pyrazolo[3,4-d]pyrimidin-6-yl)amino)phenethyl)-N1-(2-(2,6-dioxopiperidin-3-yl)-1-oxoisoindolin-5-yl)piperidine-1,4-dicarboxamide] the DC50 was 10 to 1000 nM.
Compound `Cc1cccc(C)c1Nc1nn(C)c2nc(Nc3ccc4c(c3)CN(CC(=O)N3CCN(c5ccc6c(c5)CN(C5CCC(=O)NC5=O)C6=O)CC3)CC4)ncc12` (centres unmarked) [Compound 103, 3-(5-(4-(2-(7-((3-((2,6-dimethylphenyl)amino)-1-methyl-1H-pyrazolo[3,4-d]pyrimidin-6-yl)amino)-3,4-dihydroisoquinolin-2 (1H)-yl)acetyl)piperazin-1-yl)-1-oxoisoindolin-2-yl)piperidin-2,6-one] has a DC50 of 10 to 1000 nM.
In the case of `Cc1cccc(C)c1Nc1nn(C)c2nc(Nc3ccc4c(c3)CN(CC3CCN(C(=O)CNc5ccc6c(c5)CN(C5CCC(=O)NC5=O)C6=O)CC3)CC4)ncc12` (centres unmarked) [Compound 80, 3-(5-((2-(4-((7-((3-((2,6-Dimethylphenyl)amino)-1-methyl-1H-pyrazolo[3,4-d]pyrimidin-6-yl)amino)-3,4-dihydroisoquinolin-2 (1H)-yl)methyl)piperidin-1-yl)-2-oxoethyl)amino)-1-oxoisoindolin-2-yl)piperidin-2,6-one], the DC50 is reported as 0.1 to 10 nM.
In the case of `Cc1cccc(C)c1Nc1nn(C)c2nc(Nc3ccc4c(c3)CN(CC3CCN(C5=CC(=O)N(C6CCC(=O)NC6=O)C5=O)CC3)CC4)ncc12` (centres unmarked) [Compound 201, 3-(3-(4-((7-((3-((2,6-dimethylphenyl)amino)-1-methyl-1H-pyrazolo[3,4-d]pyrimidin-6-yl)amino)-3,4-dihydroisoquinolin-2 (1H)-yl)methyl)piperidin-1-yl)-2,5-dioxo-2,5-dihydro-1H-pyrrol-1-yl)piperidin-2,6-one], the DC50 is reported as 0.1 to 10 nM.
Work on `Cc1cccc(C)c1Nc1nn(C)c2nc(Nc3ccc4c(c3)CN(CC3CCN(C(=O)c5ccc6c(c5)CN(C5CCC(=O)NC5=O)C6=O)CC3)CC4)ncc12` (centres unmarked) [Compound 258, 3-(5-(4-((7-((3-((2,6-Dimethylphenyl)amino)-1-methyl-1H-pyrazolo[3,4-d]pyrimidin-6-yl)amino)-3,4-dihydroisoquinolin-2 (1H)-yl)methyl)piperidine-1-carbonyl)-1-oxoisoindolin-2-yl)piperidin-2,6-one] yielded a DC50 of 0.1 to 10 nM.
Work on `Cc1cc(F)ccc1Nc1nn(C)c2nc(Nc3ccc4c(c3)CN(CC3CCN(c5ccc6c(c5)C(=O)N(C5CCC(=O)NC5=O)C6=O)CC3)CC4)ncc12` (centres unmarked) [Compound 121, 2-(2,6-Dioxopiperidin-3-yl)-5-(4-((7-((3-((4-fluoro-2-methylphenyl)amino)-1-methyl-1H-pyrazolo[3,4-d]pyrimidin-6-yl)amino)-3,4-dihydroisoquinolin-2 (1H)-yl)methyl)piperidin-1-yl)isoindoline-1,3-dione] yielded a DC50 of 10 to 1000 nM.
Work on `Cc1cccc(C)c1Nc1nn(C)c2nc(Nc3ccc4c(c3)CN(C3CCN(C[C@@H]5CCCN(c6ccc7c(c6)C(=O)N(C6CCC(=O)NC6=O)C7=O)C5)CC3)CC4)ncc12` (stereo partly drawn) [Compound 141, 5-((S)-3-((4-(7-((3-((2,6-dimethylphenyl)amino)-1-methyl-1H-pyrazolo[3,4-d]pyrimidin-6-yl)amino)-3,4-dihydroisoquinolin-2 (1H)-yl)piperidin-1-yl)methyl)piperidin-1-yl)-2-(2,6-dioxopiperidin-3-yl)isoindoline-1,3-dione] yielded a DC50 of 0.1 to 10 nM.
Work on `Cc1cccc(C)c1Nc1nn(C)c2nc(Nc3ccc4c(c3)CN(CC3(NC(=O)COc5ccc6c(c5)C(=O)N(C5CCC(=O)NC5=O)C6=O)CC3)CC4)ncc12` (centres unmarked) [Compound 205, N-(1-((7-((3-((2,6-dimethylphenyl)amino)-1-methyl-1H-pyrazolo[3,4-d]pyrimidin-6-yl)amino)-3,4-dihydroisoquinolin-2 (1H)-yl)methyl)cyclopropyl)-2-((2-(2,6-dioxopiperidin-3-yl)-1,3-dioxoisoindolin-5-yl)oxy)acetamide] yielded a DC50 of 10 to 1000 nM.

From patent publication US12161722B2, “Bifunctional heterocyclic compound having BTK degradation function via ubiquitin proteasome pathway, and use thereof” (KOREA RESEARCH INSTITUTE OF CHEMICAL TECHNOLOGY, priority 2021, dated 2024)
